For 15 compounds, IC50 results are on record in patent publication US20230043863A1, “HETEROAROMATIC DERIVATIVES FOR USE AS REGULATOR, PREPARATION METHOD THEREFOR AND USE THEREOF” (JIANGSU HANSOH PHARMACEUTICAL GROUP CO., LTD., priority 2018, published 2023).

The target in one test is JAK1 (Homo sapiens, UniProt P23458). The experiment in a line: JAK kinase activity inhibition, TR-FRET (JAK1). It is filed as biochemical. Particulars: TR-FRET kinase assay. In outline: (§1)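 Enzymatic inhibition measured by time-resolved FRET using 0.1-20 nM kinase with peptide substrate and ATP, reacted 0.5-5 hours at room temperature. Percent inhibition was normalized to DMSO (no inhibitor) and kinase-free wells, and concentration-response data were fitted with a 4-parameter logistic model.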
Background: TR-FRET usually uses a lanthanide donor and a delayed reading to cut background.

In a further test the target is T1, JAK3 (Homo sapiens, UniProt P52333).
T1 sequence (P52333 1-1124): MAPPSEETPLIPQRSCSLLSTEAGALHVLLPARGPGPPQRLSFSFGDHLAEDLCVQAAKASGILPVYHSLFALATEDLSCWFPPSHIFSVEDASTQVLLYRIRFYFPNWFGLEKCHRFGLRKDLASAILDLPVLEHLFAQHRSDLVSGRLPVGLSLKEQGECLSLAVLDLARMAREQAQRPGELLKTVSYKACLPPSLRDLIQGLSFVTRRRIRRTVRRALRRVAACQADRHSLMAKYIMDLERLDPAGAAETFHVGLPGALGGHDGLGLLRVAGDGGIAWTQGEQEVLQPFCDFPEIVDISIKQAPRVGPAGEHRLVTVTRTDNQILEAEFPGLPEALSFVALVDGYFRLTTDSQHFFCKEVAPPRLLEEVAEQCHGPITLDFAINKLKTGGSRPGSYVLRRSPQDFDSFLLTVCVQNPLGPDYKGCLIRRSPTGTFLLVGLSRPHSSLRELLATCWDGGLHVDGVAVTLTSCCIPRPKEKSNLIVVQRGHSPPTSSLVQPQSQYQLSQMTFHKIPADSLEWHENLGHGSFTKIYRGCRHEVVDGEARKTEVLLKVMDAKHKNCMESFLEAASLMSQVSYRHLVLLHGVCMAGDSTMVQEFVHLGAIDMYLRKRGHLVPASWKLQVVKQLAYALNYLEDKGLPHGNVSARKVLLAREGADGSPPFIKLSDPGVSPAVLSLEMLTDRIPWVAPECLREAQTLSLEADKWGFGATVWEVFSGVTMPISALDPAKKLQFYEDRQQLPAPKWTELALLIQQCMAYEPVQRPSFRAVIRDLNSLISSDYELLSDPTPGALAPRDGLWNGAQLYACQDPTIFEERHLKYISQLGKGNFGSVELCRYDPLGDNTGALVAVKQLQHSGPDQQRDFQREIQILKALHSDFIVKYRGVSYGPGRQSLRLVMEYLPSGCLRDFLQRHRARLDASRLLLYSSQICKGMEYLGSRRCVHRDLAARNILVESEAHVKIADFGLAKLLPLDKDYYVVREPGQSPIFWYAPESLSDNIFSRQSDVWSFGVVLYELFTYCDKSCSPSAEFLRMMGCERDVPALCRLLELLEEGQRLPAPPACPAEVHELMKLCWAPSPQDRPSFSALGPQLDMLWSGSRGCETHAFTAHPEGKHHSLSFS
The test can be described thus: JAK kinase activity inhibition, TR-FRET (JAK3). In kind it is biochemical. Particulars: TR-FRET kinase assay. In outline: as §1

A further test addresses TYK2 (Homo sapiens, UniProt P29597). The experiment in a line: JAK kinase activity inhibition, TR-FRET (TYK2). The conditions noted are these: TR-FRET kinase assay. It is filed as biochemical. In outline:
as §1

The subject of test [1] is JAK-STAT signal pathway of U266 cells. The test can be described thus: Inhibition of cellular JAK-STAT signal pathway (STAT3 phosphorylation) in U266 cells. The conditions noted are these: Homo sapiens, U-266, INF-a 1000 U/mL stimulation. In kind it is cell-based, human. In outline:
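U266 cells (100-300 K/well) preincubated 2 h at room temperature with serially diluted compound, then stimulated 15 min with IFN-α at 1000 U/mL final. After lysis, STAT3 phosphorylation read by LANCE Ultra TR-FRET (Eu antibody 0.5 nM, ULight antibody 5 nM, overnight) at 665 nm; IC50 from 4-parameter fit of inhibition versus DMSO and negative controls.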

What is called IC50 is the concentration that inhibits the measured activity by half.

Chain of JAK1 (P23458 whole entry): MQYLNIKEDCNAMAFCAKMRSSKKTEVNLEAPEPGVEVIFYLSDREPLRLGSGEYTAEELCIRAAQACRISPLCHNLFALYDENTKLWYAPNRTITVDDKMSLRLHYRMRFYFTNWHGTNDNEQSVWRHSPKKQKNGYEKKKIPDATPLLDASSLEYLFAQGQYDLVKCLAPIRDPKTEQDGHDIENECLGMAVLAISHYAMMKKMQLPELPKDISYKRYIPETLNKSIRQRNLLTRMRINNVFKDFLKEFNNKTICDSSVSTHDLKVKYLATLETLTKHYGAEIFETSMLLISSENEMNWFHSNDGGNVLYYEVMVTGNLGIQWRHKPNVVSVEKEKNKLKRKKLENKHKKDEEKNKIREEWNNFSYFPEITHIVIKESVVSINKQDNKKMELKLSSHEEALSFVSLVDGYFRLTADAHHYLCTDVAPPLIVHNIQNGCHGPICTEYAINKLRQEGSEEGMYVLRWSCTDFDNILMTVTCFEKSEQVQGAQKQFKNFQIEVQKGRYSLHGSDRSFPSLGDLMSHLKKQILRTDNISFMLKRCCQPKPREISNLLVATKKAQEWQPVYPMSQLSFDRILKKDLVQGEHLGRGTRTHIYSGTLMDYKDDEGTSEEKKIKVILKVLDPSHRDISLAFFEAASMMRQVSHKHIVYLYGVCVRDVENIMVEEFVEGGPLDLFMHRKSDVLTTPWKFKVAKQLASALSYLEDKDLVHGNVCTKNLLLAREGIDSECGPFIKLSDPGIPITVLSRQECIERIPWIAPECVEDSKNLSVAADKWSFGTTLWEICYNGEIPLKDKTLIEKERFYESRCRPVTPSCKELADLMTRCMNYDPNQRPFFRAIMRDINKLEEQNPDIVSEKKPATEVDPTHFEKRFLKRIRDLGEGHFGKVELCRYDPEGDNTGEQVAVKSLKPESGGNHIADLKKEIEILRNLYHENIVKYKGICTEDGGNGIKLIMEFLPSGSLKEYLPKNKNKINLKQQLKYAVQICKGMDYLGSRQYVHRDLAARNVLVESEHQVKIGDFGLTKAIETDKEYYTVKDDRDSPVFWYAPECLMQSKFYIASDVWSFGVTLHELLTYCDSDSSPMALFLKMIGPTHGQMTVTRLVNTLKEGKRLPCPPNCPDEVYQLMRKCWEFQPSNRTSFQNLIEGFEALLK
Chain of TYK2 (P29597 whole entry): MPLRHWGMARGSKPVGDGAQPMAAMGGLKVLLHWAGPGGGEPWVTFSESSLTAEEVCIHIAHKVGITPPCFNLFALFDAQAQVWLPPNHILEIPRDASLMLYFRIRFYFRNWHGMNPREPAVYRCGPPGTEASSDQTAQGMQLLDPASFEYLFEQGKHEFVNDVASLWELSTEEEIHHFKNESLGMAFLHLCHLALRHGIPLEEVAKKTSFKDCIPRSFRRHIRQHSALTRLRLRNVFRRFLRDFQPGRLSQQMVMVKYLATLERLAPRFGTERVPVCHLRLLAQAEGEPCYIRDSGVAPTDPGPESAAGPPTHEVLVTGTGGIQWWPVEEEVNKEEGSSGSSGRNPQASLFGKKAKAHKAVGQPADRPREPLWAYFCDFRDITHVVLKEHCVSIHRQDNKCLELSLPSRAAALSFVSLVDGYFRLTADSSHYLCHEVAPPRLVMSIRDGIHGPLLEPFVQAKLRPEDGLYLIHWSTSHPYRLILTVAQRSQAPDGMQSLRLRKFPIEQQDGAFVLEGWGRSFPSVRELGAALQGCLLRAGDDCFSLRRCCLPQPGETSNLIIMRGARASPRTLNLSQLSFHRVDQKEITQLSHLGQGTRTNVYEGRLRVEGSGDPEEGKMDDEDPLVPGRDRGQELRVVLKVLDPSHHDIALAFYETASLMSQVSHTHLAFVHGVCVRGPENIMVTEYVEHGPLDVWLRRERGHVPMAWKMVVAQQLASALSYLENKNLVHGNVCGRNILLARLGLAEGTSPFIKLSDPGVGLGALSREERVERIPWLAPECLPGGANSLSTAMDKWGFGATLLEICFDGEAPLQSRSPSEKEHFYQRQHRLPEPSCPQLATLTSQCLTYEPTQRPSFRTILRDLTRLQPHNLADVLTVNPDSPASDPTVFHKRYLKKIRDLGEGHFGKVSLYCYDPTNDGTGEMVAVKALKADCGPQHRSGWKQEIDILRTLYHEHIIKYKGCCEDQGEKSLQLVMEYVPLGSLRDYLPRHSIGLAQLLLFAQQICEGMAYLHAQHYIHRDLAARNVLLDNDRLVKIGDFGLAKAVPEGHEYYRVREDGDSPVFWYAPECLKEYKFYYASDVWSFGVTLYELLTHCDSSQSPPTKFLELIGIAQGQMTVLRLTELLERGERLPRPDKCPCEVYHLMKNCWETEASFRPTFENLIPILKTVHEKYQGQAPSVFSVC

`Cc1cnc(Nc2cc3ncccc3c(N[C@@H]3C[C@H]4CC[C@@H](C3)N4CCC#N)n2)s1` [Embodiment 1, 3-((3-exo)-3-((7-((5-methylthioazol-2-yl)amino)-1,6-diazanaphthalen-5-yl)amino)-8-azabicyclo[3.2.1]oct-8-yl)propionitrile]: the IC50 at JAK1 came to 0.34 nM; on JAK3 it was 2.68 nM; on TYK2 it was 0.55 nM; in test [1], 0.15 nM.
Consider `Cc1cc(Nc2nc(N[C@@H]3C[C@H]4CC[C@@H](C3)N4CCC#N)nc3ccsc23)n[nH]1` [Embodiment 60, 3-((3-exo)-3-((4-((5-methyl-1H-pyrazol-3-yl)amino)thieno[3,2-d]pyrimidin-2-yl)amino)-8-azabicyclo[3.2.1]oct-8-yl)propionitrile], for which the IC50 stood at 0.12 nM at JAK1, 0.46 nM on TYK2 and 2.9 nM in test [1].
As to `COc1ccc2c(Nc3cc(C)[nH]n3)nc(N[C@@H]3C[C@H]4CC[C@@H](C3)N4CCC#N)nc2c1` [Embodiment 169, 3-((3-exo)-3-((7-methoxyl-4-((5-methyl-1H-pyrazol-3-yl)amino)quinazolin-2-yl)amino)-8-azabicyclo[3.2.1]oct-8-yl)propionitrile], the IC50 on JAK1 was 0.63 nM; on JAK3 it was 28.8 nM; at TYK2, 0.5 nM; in test [1] it was 9.32 nM.
With `Cc1cc(Nc2nc(N[C@@H]3C[C@H]4CC[C@@H](C3)N4CCC#N)nc3cc(Br)ccc23)n[nH]1` [Embodiment 170, 3-((3-exo)-3-((7-bromine-4-((5-methyl-1H-pyrazol-3-yl)amino)quinazolin-2-yl)amino)-8-azabicyclo[3.2.1]oct-8-yl)propionitrile], the IC50 came to 0.66 nM on JAK1, 0.225 nM on TYK2 and 3.35 nM in test [1].
For `Cc1cc(Nc2nc(N[C@@H]3C[C@H]4CC[C@@H](C3)N4CCC#N)nc3cc(Cl)ccc23)n[nH]1` [Embodiment 171, 3-((3-exo)-3-((7-chloro-4-((5-methyl-1H-pyrazol-3-yl)amino)quinazolin-2-yl)amino)-8-azabicyclo[3.2.1]oct-8-yl)propionitrile], the IC50 at JAK1 stood at 0.85 nM; at JAK3, 23.3 nM; at TYK2, 0.6 nM; in test [1], 0.85 nM.
As to `Cc1cc(Nc2nc(N[C@@H]3C[C@H]4CC[C@@H](C3)N4S(=O)(=O)N3CC(C#N)C3)nc3ccccc23)n[nH]1` [Embodiment 213, 1-(((3-exo)-3-((4-((5-methyl-1H-pyrazol-3-yl)amino)quinazolin-2-yl)amino)-8-azabicyclo[3.2.1]oct-8-yl)sulfonyl)azetindin-3-formonitrile], the IC50 on JAK1 was 0.2 nM; on JAK3, 12.6 nM; on TYK2, 0.46 nM; in test [1] it was 11.1 nM.
`Cc1cc(Nc2nc(N[C@@H]3C[C@H]4CC[C@@H](C3)N4S(=O)(=O)N3CC(C#N)C3)nc3cc(Cl)ccc23)n[nH]1` [Embodiment 214]: the IC50 at JAK1 was 0.35 nM; at JAK3, 133 nM; on TYK2 it was 0.455 nM; in test [1], 17.7 nM.
On the same counts, the results for `Cc1cc(Nc2nc(N[C@@H]3C[C@H]4CC[C@@H](C3)N4S(=O)(=O)N3CC(C#N)C3)nc3sccc23)n[nH]1` [Embodiment 237, 1-(((3-exo)-3-((4-((5-methyl-1H-pyrazol-3-yl)amino)thieno[2,3-d]pyrimidin-2-yl)amino)-8-azabicyclo[3.2.1]oct-8-yl)sulfonyl)azetindin-3-formonitrile] are 0.07 nM, 3.62 nM, 0.32 nM and 0.56 nM.
The corresponding values for `Cc1cc(Nc2nc(N[C@@H]3C[C@H]4CCC[C@@H](C3)N4S(=O)(=O)N3CC(C#N)C3)nc3sccc23)n[nH]1` [Embodiment 238] are 0.03 nM, 0.71 nM, 0.12 nM and 1.15 nM.
On the same counts, the results for `Cc1cc(Nc2nc(N[C@@H]3C[C@H]4CCC[C@@H](C3)N4C(=O)CN3CCOCC3)nc3sccc23)n[nH]1` [Embodiment 246, 1-((3-exo)-3-((4-((5-methyl-1H-pyrazol-3-yl)amino)thieno[2,3-d]pyrimidin-2-yl)amino)-9-azabicyclo[3.3.1]non-9-yl)-2-morpholinoethane-1-one] are 0.22 nM, 6.87 nM, 1.88 nM and 1 nM.
For the compound `CNCC(=O)N1[C@@H]2CCC[C@H]1C[C@H](Nc1nc(Nc3cc(C)[nH]n3)c3ccsc3n1)C2` [Embodiment 247, 1-((3-exo)-3-((4-((5-methyl-1H-pyrazol-3-yl)amino)thieno[2,3-d]pyrimidin-2-yl)amino)-9-azabicyclo[3.3.1]non-9-yl)-2-(methylamino)-ethane-1-one], the IC50 turned out to be 0.1 nM on JAK1, 2.4 nM at JAK3, 0.12 nM at TYK2 and 2.27 nM in test [1].
Take `Cc1cc(Nc2nc(N(C)[C@@H]3C[C@H]4CCC[C@@H](C3)N4C(=O)CN3CCN(C)CC3)nc3sccc23)n[nH]1` [Embodiment 257, 1-((3-exo)-3-(methyl(4-((5-methyl-1H-pyrazol-3-yl)amino)thieno[2,3-d]pyrimidin-2-yl)amino)-9-azabicyclo[3.3.1]non-9-yl)-2-(4-methylpiperazin-1-yl)ethane-1-one]: the IC50 on JAK1 turned out to be 0.07 nM; at JAK3, 19.9 nM; at TYK2, 0.2 nM; in test [1], 1.45 nM.
The corresponding values for `Cc1cc(Nc2nc(N[C@@H]3C[C@H]4CCC[C@@H](C3)N4C(=O)c3ccccn3)nc3sccc23)n[nH]1` [Embodiment 260, ((3-exo)-3-((4-((5-methyl-1H-pyrazol-3-yl)amino)thieno[2,3-d]pyrimidin-2-yl)amino)-9-azabicyclo[3.3.1]non-9-yl)(pyridin-2-yl)methanone] are 0.19 nM, 3.83 nM, 0.225 nM and 1.1 nM.
The corresponding values for `Cc1cc(Nc2nc(N[C@@H]3C[C@H]4CC[C@@H](C3)N4CCC#N)nc3sc(C)cc23)n[nH]1` [Embodiment 277, 3-((3-exo)-3-((6-methyl-4-((5-methyl-1H-pyrazol-3-yl)amino)thieno[2,3-d]pyrimidin-2-yl)amino)-8-azabicyclo[3.2.1]oct-8-yl)propionitrile] are 0.61 nM, 8.26 nM, 0.58 nM and 0.49 nM.
On the same counts, the results for `Cc1cc(Nc2nc(N[C@@H]3C[C@H]4CCC[C@@H](C3)N4CCC#N)nc3scnc23)n[nH]1` [Embodiment 278, 3-((3-exo)-3-((7-((5-methyl-1H-pyrazol-3-yl)amino)thiazolo[5,4-d]pyrimidin-5-yl)amino)-9-azabicyclo[3.3.1]non-9-yl)propionitrile] are 0.71 nM, 7.05 nM, 0.98 nM and 0.29 nM.
